Test results as given in patent US20220354811A1, “METHODS AND COMPOSITIONS FOR MODULATING MACROPHAGES POLARIZATION” (INSERM (INSTITUT NATIONAL DE LA SANTÉ ET DE LA RECHERCHE …, priority 2019, published 2022).

Key:
caspase-8 = caspase-8 (Homo sapiens, UniProt Q14790); assay: Caspase-8 activity in cellulo in CSF-1-differentiating monocytes (flow cytometry, IETD); type: cell-based; set-up: endogenous in cells; host or cells: primary human peripheral blood monocytes exposed to CSF-1; details: CSF-1 2 days
From the text: (§1) FIG. 5. […] Caspases activities from 3 different healthy donors was examined by flow cytometry analysis. The results are expressed as percentage of IETD or DEVD positive cells and represent the mean±SD of 3 independent experiments performed in duplicate. n.s. denotes not statistically significant according to a paired student t test. *P<0.05, **P<0.01, ***P<0.001 according to a paired student t test (versus d2). Asterisks indicate cleavage fragments. Each panel is representative of at least 3 independent experiments.
(§2) To analyze the macrophagic differentiation of monocytes, the cells were washed with ice-cold phosphate buffered saline (PBS, Life Technologies, 14190169), incubated at 4° C. for 10 min in PBS/bovine serum albumin (BSA 0.5%, Dutscher, 871002) with anti-CD16, anti-CD71 and anti-CD163 or isotype controls (Miltenyi and BD Biosciences, catalog numbers were 130-113-396, 130-097-628 and 551374). […] Fluorescence was measured with a MACSQuant® Analyzer (Miltenyi, Paris, France). […] Fluorescence was measured with a MACSQuant® Analyzer (Miltenyi, Paris, France). […] Fluorescence, that indicate the internalization of particles, was measured with a MACSQuant® Analyzers (Miltenyi, France). Trypan blue solution was used to quench the fluorescence from particles that were not internalized. […]
(§3) After 2 days, caspase-8 activity was assessed by flow cytometry using Ac-IETD-FITC as substrate (data not shown).

caspase 3 [1] = target: T1, caspase 3 (Homo sapiens, UniProt P42574); assay: Caspase-3 activity in cellulo in CSF-1-differentiating monocytes (flow cytometry, DEVD); type: cell-based; set-up: endogenous in cells; host or cells: primary human peripheral blood monocytes (CD14-selected, healthy donors); details: identical conditions: Emricasan single dose, Q-VD-OPh 100 μM 2 times
T1 sequence (P42574 29-175 limits assumed): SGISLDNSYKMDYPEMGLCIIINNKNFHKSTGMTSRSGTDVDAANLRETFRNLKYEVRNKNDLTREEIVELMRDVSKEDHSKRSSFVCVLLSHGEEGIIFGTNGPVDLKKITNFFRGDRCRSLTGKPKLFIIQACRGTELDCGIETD
T1 sequence (P42574 176-277 limits assumed): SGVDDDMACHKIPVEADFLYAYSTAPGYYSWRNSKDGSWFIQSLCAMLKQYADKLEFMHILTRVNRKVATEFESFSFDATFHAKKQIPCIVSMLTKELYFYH
From the text: as §1, §2, §3

caspase 3 [2] = target: T1, caspase 3; assay: Caspase 3 activity in untreated monocytes (Ac-DEVD-AMC substrate); type: cell-based; set-up: endogenous in cells; host or cells: primary human peripheral blood monocytes (CD14-selected, healthy donors); details: all the concentrations tested, 1 day
Method: FIG. 3. Both Q-VD-Oph and Emricasan hamper in the same way apoptosis in untreated monocytes. […] Measures of caspase-3 (DEVD-AMC) and caspase-8 (IETD-AMC) activities. The results are expressed as A.U./mg/min and represent the mean the mean±SD of 3 independent experiments performed in triplicate.
After stimulation, cells were lysed for 30 min at 4° C. in lysis buffer (50 mM HEPES pH 8, 150 mM NaCl, 20 mM EDTA, 1 mM PMSF, 10 μg/mL leupeptin, 10 μg/mL aprotinin and 0.2% Triton X-100) and lysates were cleared at 16 000 g for 15 min at 4° C. Each assay (in triplicate) was performed with 10 μg of protein prepared from control or stimulated cells. Briefly, cellular extracts were then incubated in a 96-well plate with 0.2 mM of DEVD-AMC (Caspase-3) or IETD-AMC (Caspase-8) as substrates for various times at 37° C. Caspase activity was measured either following emission at 460 nm (excitation at 390 nm) in the presence or not of 10 μM of DEVD-CHO or IETD-CHO. Enzyme activities were expressed in arbitrary units (A.U.) per min and per mg of proteins. The same protocol was used with 0.25 units of active recombinant caspase-8 (Enzo, ALX-201-062) or -3 (Enzo, ALX-201-059) in each triplicate.

caspases 8, 3 and 7 = assay: Western blot of caspase cleavage in monocytes; type: cell-based, human; details: for cleavage of effector caspases-3 and -7 at their specific differentiation cleavage site: monocytes treated 2 days with CSF-1; for cleavage of the zymogens of caspases 8, 3 and 7 in their active 17-20 kDa fragments: untreated monocytes without CSF-1, 24 h
Method: Lysates were centrifuged at 20,000 g (15 min, 4° C.) and supernatants were supplemented with concentrated loading buffer (4× Laemmli buffer). Fifty micrograms of proteins were separated and transferred following standard protocols before analysis with the chemiluminescence detection kit (GE Healthcare, RPN2105).

[3] = system: human freshly isolated monocytes; assay: Spontaneous apoptosis of untreated monocytes cultured without CSF-1 (Annexin V staining); type: cell-based; details: 24 h in culture without CSF-1

Sequence of caspase-8 (Q14790 217-479): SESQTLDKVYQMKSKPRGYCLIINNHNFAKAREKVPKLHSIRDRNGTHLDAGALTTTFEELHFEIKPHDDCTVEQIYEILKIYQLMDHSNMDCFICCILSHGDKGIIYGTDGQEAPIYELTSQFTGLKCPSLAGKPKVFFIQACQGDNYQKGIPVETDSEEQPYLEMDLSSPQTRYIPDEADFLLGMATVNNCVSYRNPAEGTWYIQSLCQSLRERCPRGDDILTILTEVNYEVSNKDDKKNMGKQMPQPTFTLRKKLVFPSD

Row | SMILES | effect on caspase-8 activity in cellulo (caspase-8; added twice at 100 μM) | effect on caspase-3 activity in cellulo (caspase 3 [1]) | caspase 3 activity in untreated monocytes (caspase 3 [2]) | cleavage of effector caspases-3 and -7 at their specific differentiation cleavage site (caspases 8, 3 and 7) | cleavage of the zymogens of caspases 8, 3 and 7 in their active 17-20 kDa fragments (caspases 8, 3 and 7) | concentration sufficient to abrogate Annexin V staining [3] [µM] | single dose that abrogated caspase-8 activity in cellulo (caspase-8; flow cytometry) [µM]
1 | CC(C)[C@H](NC(=O)c1ccc2ccccc2n1)C(=O)N[C@@H](CC(=O)O)C(=O)COc1c(F)cccc1F [Q-VD-OPh] | strong inhibition | potent inhibition | efficiently inhibited | impaired | abrogated | ≤ 5 | –
2 | C[C@H](NC(=O)C(=O)Nc1ccccc1C(C)(C)C)C(=O)N[C@@H](CC(=O)O)C(=O)COc1c(F)c(F)cc(F)c1F [Emricasan, (S)-3-((S)-2-(2-((2-(tert-Butyl)phenyl)amino)-2-oxoacetamido)propanamido)-4-oxo-5-(2,3,5,6-tetrafluorophenoxy)pentanoic acid] | – | potent inhibition | efficiently inhibited | impaired | abrogated | 2 | 2
